From patent US20240325548A1, “DYNAMIC BIOACTIVE SCAFFOLDS AND THERAPEUTIC USES THEREOF AFTER CNS INJURY” (Northwestern University, priority 2021, published 2024)

Assays:
[1] = test system: murine model of severe spinal cord injury (SCI); assay: Corticospinal tract (CST) axon regrowth after SCI (BDA tracing); type: in vivo, mouse; conditions: 12 weeks after injury, BDA-labeled axons
Protocol: All experiments were conducted at the Simpson Querrey Institute at Northwestern University. 182 CD1 mice (Charles River) were subjects of this study (N=38 Sham, N=38 IKVAV PA2 alone, N=38 IKVAV PA2+FGF2 PA1, N=38 IKVAV PA2+FGF2 PA2, N=12 IKVAV PA1, N=12 Backbone PA, N=6 IKVAV PA4). The age of animals used in the study was in the range of 10-16 weeks. 8 independent in vivo experiments were carried out (injury+PA injection) and each of the 8 experiments had animals of the exact same age which were injected with at least the 4 main treatment groups: Sham, IKVAV PA2 alone, IKVAV PA2+FGF2 PA1, and IKVAV PA2+FGF2 PA2. Animals were anesthetized using 2.5% isoflurane gas with oxygen. A laminectomy was performed to expose the spinal cord at the T10-T11 spinal level. A severe contusive injury was performed using the Infinite Horizon Spinal Cord Impactor system (IH-0400 Precision Systems and Instrumentation) with 85 kdyn of impact force and a dwell time of 60 s. After the lesion, the skin was sutured using 9 mm wound clips (BD Biosciences) and the animals were recovered on a heating pad to maintain body temperature. Bladders were manually expressed daily during the entire 12 weeks of the experiment.
PAs (dissolved in sterile NaCl 0.9% solution at 1 wt %) were injected 24 h after SCI using a glass capillary micropipette (Sutter Instruments, Novato, CA) (outer diameter, 100 m) coated with Sigmacote (Sigma-Aldrich) to reduce surface tension as described elsewhere (19). The capillaries were loaded onto a Hamilton syringe using a female Luer adaptor (World Precision Instruments) controlled by a Micro4 microsyringe pump controller (World Precision Instruments). Under isoflurane anesthesia, autoclips were removed and the injury site was exposed. At 24 h post injury, the laminectomy in the spinal column was still intact and the bruise created by the lesion was visible. A stereotaxic Kopf apparatus was used to position the micropipette just dorsal to the lesion. The micropipette was lowered to a depth of 750 m measured from the dorsal surface of the cord, and 4-6 μL of the diluted amphiphile solution was injected at 1 L/min. […]
Axons labeled using BDA (Thermofisher, N7167) or stained with 5HT (Abcam) were quantified using Imaris® software version 9.3 as previously described (21). Lines were drawn across longitudinal spinal cord sections from the proximal border (PB) to the distal border (DB) of the SCI lesion at consistent distances and the number of axons intercepting the lines drawn was counted by researchers that were blinded to the experimental conditions. Multiple sections through the middle of the cord, where BDA or 5HT staining was denser, were counted per mouse and expressed as total intercepts per location, per animal. […]

[2] = Fluorescence depolarization (FD) with DPH encapsulated in PA nanofibers; type: physicochemical; conditions: for supramolecular motion on addition of Ca2+: 5 mM CaCl2, confirmed by FD and T2-NMR; for fluorescence anisotropy: DPH probe in hydrophobic core of IKVAV PA nanofibers
Protocol: An aqueous solution of 100 μL of annealed PA ([PA]=6 mM, [KCl]=3 mM, [NaCl]=150 mM) was added a THF solution (2 μL) of 1,6-diphenyl-1,3,5-hexatriene (DPH; 1.4 mM), and the mixture was incubated for 30 min at 25° C. Then, the mixture was diluted with aqueous KCl and NaCl (1900 μL, [KCl]=3 mM, [NaCl]=150 mM), incubated for 10-30 min at 25° C. to afford a solution of DPH (1.4 μM)-embedded PA (300 μM). To obtain IKVAV PA2 (A2G2) or IKVAV PA5 (G4) in the presence of CaCl2), 5 mM CaCl2) was then added to the DPH-embedded PA aqueous solution to afford PA: CaCl2) at a molar ratio of 6:1. DPH was exited at 336 nm and emission was recorded at 450 nm on an ISS model PC1 spectrofluorometer with a 300 W xenon arc lamp with power of 18 A. Excitation slit and emission slit widths were set as 1 mm (8 nm bandwidth). Anisotropy was calculated using the following equation: […]
Where F∥ represents the parallel intensity to the excitation plane, F⊥ is the perpendicular intensity to the excitation plane, g is grating factor (G-factor) that represents the intensity ratio of the sensitivity of the detection system for vertically and horizontally polarized light. G-factors were determined individually in each measurement. Results were averaged based on 34 iterations from two measurements.

[3] = Small- and wide-angle X-ray scattering (SAXS/WAXS) of PA nanofibers; type: physicochemical; conditions: PA nanofibers in solution
Protocol: Small-angle X-ray scattering (SAXS), medium-angle X-ray scattering (MAXS), a wide-angle X-ray scattering (WAXS) experiments were performed at beamline 5-ID-D of the DuPont-Northwestern-Dow Collaborative Access Team (DND-CAT) Synchrotron Research Center at the Advanced Photon Source, Argonne National Laboratory. 100-150 μL of sample solution ([PA]=1-3 w/v % (˜6-10 mM) in aqueous NaCl and KCl ([NaCl]=150 mM and [KCl]=3 mM)) was introduced into capillary flow-cell with a fixed diameter and irradiated with X-ray for an exposure time of 0.5, 2, 3, or 10 s. Samples were oscillated at a rate of […] in the capillary with a syringe pump during sample measurement to prevent damage due to beam overexposure. Data was collected with an X-ray energy at 17 keV ([…]) with a triple-area detector system. The scattering intensity was recorded in the interval 0.002390<q<4.4578 Å^−1. The wave vector q is defined as =(4π/λ) sin(θ/2), where θ is the scattering angle. The acquired 2D scattering data were then reduced to 1D intensity vs. wavevector plots via azimuthal integration around the beam center in GSAS-II software. Background scattering patterns were obtained from samples containing 150 mM NaCl and 3 mM KCl. This background data was then subtracted from experimental data. All data was analyzed using the Irena software package running on IgorPro software.

C16-A2G2E4GIKVAV [IKVAV PA2]
CST axon regrowth within the lesion [1]: modest, but increased axon regrowth
supramolecular motion on addition of Ca2+ [2]: suppressed
fluorescence anisotropy [2]: 0.21
SAXS slope in the Guinier region [3]: −1.2

C16-G4E4GIKVAV [IKVAV PA5]
supramolecular motion on addition of Ca2+ [2]: suppressed
fluorescence anisotropy [2]: 0.18
SAXS slope in the Guinier region [3]: −0.2

C16-V2A2E4GIKVAV [IKVAV PA1]
CST axon regrowth within the lesion [1]: some regrowth of axons

C16-VAG2E4GIKVAV [IKVAV PA4]
CST axon regrowth within the lesion [1]: intermediate level of axon regrowth
fluorescence anisotropy [2]: 0.30
